{
  "source": "ChEMBL document CHEMBL5104089",
  "about": "“An update into the medicinal chemistry of translocator protein (TSPO) ligands” (Eur J Med Chem, 2021)",
  "key": {"[1]": {"biological_target": "T1, Translocator protein (Homo sapiens, UniProt P30536)", "T1 sequence (P30536 whole entry)": "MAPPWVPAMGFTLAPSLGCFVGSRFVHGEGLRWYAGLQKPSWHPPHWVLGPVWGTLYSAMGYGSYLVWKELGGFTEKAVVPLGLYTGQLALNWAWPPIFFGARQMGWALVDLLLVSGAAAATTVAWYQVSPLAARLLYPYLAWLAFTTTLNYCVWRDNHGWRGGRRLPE", "assay": "Inhibition of TSPO receptor (unknown origin)"}, "[2]": {"biological_target": "T2, Translocator protein (Rattus norvegicus, UniProt P16257)", "T2 sequence (P16257 whole entry, looked up)": "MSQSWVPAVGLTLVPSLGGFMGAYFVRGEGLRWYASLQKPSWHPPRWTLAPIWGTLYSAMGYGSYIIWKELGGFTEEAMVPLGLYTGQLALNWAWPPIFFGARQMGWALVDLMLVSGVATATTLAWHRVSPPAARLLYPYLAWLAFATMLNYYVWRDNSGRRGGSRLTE", "assay": "Displacement of [3H]-PK11195 from TSPO receptor in Sprague-Dawley rat brain incubated for 30 mins by […] analysis", "format": "tissue-based"}, "[3]": {"assay": "Lipophilicity, logD of the compound in 1-octanol and phosphate buffer in pH 7.4 incubated for 3 mins by shake flask method", "format": "physicochemical", "details": "1-octanol/phosphate buffer"}, "[4]": {"assay": "Lipophilicity, logD of the compound", "format": "physicochemical", "details": "octanol/water"}, "[5]": {"assay": "Displacement of [3H]flunitrazepam from CBR receptor in rat brain cerebral cortex by liquid scintillation spectrometer method", "format": "tissue-based"}, "[6]": {"biological_target": "T1, Translocator protein", "assay": "Binding affinity to TSPO (unknown origin) relative to control", "details": "tested as the 11C-labelled form"}, "[7]": {"biological_target": "T1, Translocator protein", "assay": "Inhibition of TSPO (unknown origin) in mouse MA-10 cells assessed as increase in steroid steroidogenesis"}, "[8]": {"biological_target": "T2, Translocator protein", "assay": "Displacement of [3H]-PK11195 from TSPO receptor in rat heart microsomes incubated for 15 mins by scintillation method", "set-up": "species or system Microsome"}, "[9]": {"biological_target": "T2, Translocator protein", "assay": "Binding affinity to TSPO in Sprague-Dawley rat brain", "format": "tissue-based"}, "[10]": {"assay": "Lipophilicity, logD of the compound in 1-octanol and phosphate buffer in pH 7.4 incubated for 3 mins", "format": "physicochemical", "details": "1-octanol/phosphate buffer"}, "[11]": {"biological_target": "T2, Translocator protein", "assay": "Displacement of [3H]-Ro54864 from TSPO receptor in rat heart microsomes incubated for 45 mins by scintillation method", "set-up": "species or system Microsome"}, "[12]": {"assay": "Displacement of [3H]-Ro51788 from CBR receptor in rat brain microsomes incubated for 60 mins by scintillation method", "set-up": "species or system Microsome"}, "[13]": {"assay": "Stability of the compound assessed as intact compound level measured after 24 hrs by iTLC-SG analysis", "format": "physicochemical", "details": "read-out: Stability"}, "[14]": {"assay": "Stability of the compound in human serum assessed as intact compound level measured after 24 hrs by iTLC-SG analysis", "format": "ADME, cell-free", "details": "read-out: Stability"}, "[15]": {"assay": "Binding affinity to CBR (unknown origin)", "set-up": "species or system Homo sapiens"}, "[16]": {"biological_target": "T2, Translocator protein", "assay": "Displacement of [3H]-flunitrazepam from TSPO receptor in Wistar rat brain without cerebellum incubated for 90 mins by liquid scintillation counter analysis", "format": "tissue-based"}, "[17]": {"assay": "Selectivity ratio of Ki for CBR (unknown origin) to Ki for TSPO receptor in Wistar rat brain"}, "[18]": {"biological_target": "T1, Translocator protein", "assay": "Displacement of [3H]-PK11195 from TSPO receptor in human Leucocyte incubated for 30 mins by beta-counter analysis", "format": "cell-based"}},
  "data": [
    {"smiles": "CC(=O)N(C)c1ccccc1Oc1ccccc1", "values": [
      {"measurement": "IC50", "setting": "[1]", "result": 6.7, "unit": "nM"}
    ]},
    {"smiles": "CN(C(=O)Cn1c(=O)oc2ccc(-c3ccc(OCC[18F])cc3)cc21)c1ccccc1", "values": [
      {"measurement": "Ki", "setting": "[2]", "result": 6.6, "unit": "nM"},
      {"measurement": "logD at 0.05 h", "setting": "[3]", "result": 3.43}
    ]},
    {"smiles": "COc1ccc(-c2ccc3oc(=O)n(CC(=O)N(C)c4ccccc4)c3c2)cc1", "values": [
      {"measurement": "logD", "setting": "[4]", "result": 3.5}
    ]},
    {"smiles": "COc1ccc(OC)c(CN(C(C)=O)c2cc(F)ccc2Oc2ccccc2)c1", "values": [
      {"measurement": "IC50", "setting": "[5]", "result": "> 1000", "unit": "nM"},
      {"measurement": "Activity", "setting": "[6]", "result": 80, "unit": "%"},
      {"measurement": "IC50", "setting": "[1]", "result": 0.28, "unit": "nM"}
    ]},
    {"smiles": "CCCN(CCC)C(=O)Cc1c(-c2ccc(Cl)cc2)nc2c(NCC(=O)O)cccn12", "values": [
      {"measurement": "EC50", "setting": "[7]", "result": 21200, "unit": "nM"}
    ]},
    {"smiles": "CCN(CC)C(=O)Cn1c(=O)n2nc(-c3ccccc3)nc2c2ccccc21", "values": [
      {"measurement": "IC50", "setting": "[8]", "result": 1700, "unit": "nM"}
    ]},
    {"smiles": "CN(C(=O)Cn1c(=O)oc2ccc(-c3cccc([N+](=O)[O-])c3)cc21)c1ccccc1O[11CH3]", "values": [
      {"measurement": "Ki", "setting": "[9]", "result": 4.9, "unit": "nM"},
      {"measurement": "logD", "setting": "[4]", "result": 2.08}
    ]},
    {"smiles": "CC(=O)N(Cc1ccccc1OC(C)C)c1ccc(Cl)cc1Oc1ccccc1", "values": [
      {"measurement": "IC50", "setting": "[5]", "result": "> 1000", "unit": "nM"}
    ]},
    {"smiles": "CC(=O)N(Cc1ccccc1OC[18F])c1cnccc1Oc1ccccc1", "values": [
      {"measurement": "logD at 0.05 h", "setting": "[10]", "result": 2.85}
    ]},
    {"smiles": "CCN(CC)C(=O)Cn1c(=O)n2c(C)c(-c3ccccc3)nc2c2ccccc21", "values": [
      {"measurement": "IC50", "setting": "[11]", "result": 9, "unit": "nM"},
      {"measurement": "IC50", "setting": "[8]", "result": 29, "unit": "nM"},
      {"measurement": "IC50", "setting": "[12]", "result": "> 10000", "unit": "nM"}
    ]},
    {"smiles": "CCN(CC)C(=O)Cn1c(=O)n2cc(-c3ccc(OC)c(OC)c3)nc2c2ccccc21", "values": [
      {"measurement": "IC50", "setting": "[11]", "result": 500, "unit": "nM"},
      {"measurement": "IC50", "setting": "[8]", "result": 150, "unit": "nM"},
      {"measurement": "IC50", "setting": "[12]", "result": "> 10000", "unit": "nM"}
    ]},
    {"smiles": "COC(=O)C(Cc1c[nH]c2ccccc12)NC(=O)Cn1c(=O)oc2ccc(Br)cc21", "note": "(configuration not stated)", "values": [
      {"measurement": "remaining at 24 h", "setting": "[13]", "result": "> 94", "unit": "%"},
      {"measurement": "remaining at 24 h", "setting": "[14]", "result": "> 91", "unit": "%"}
    ]},
    {"smiles": "CCC(C)N(C)C(=O)c1cc2ccccc2c(-c2ccccc2Cl)n1", "note": "(configuration not stated) [PK-11195]", "values": [
      {"measurement": "Ki", "setting": "[15]", "result": "> 100000", "unit": "nM"}
    ]},
    {"smiles": "CN1C(=O)CN=C(c2ccccc2F)c2cc([N+](=O)[O-])ccc21", "note": "[FLUNITRAZEPAM]", "values": [
      {"measurement": "Ki", "setting": "[15]", "result": 5.11, "unit": "nM"}
    ]},
    {"smiles": "CCCN(CCC)C(=O)Cc1c(-c2ccc(OC)cc2)nc2ccc(Cl)cn12", "values": [
      {"measurement": "Ki", "setting": "[16]", "result": 0.5, "unit": "nM"},
      {"measurement": "EC50", "setting": "[7]", "result": 15900, "unit": "nM"},
      {"measurement": "Ki", "setting": "[15]", "result": 105, "unit": "nM"},
      {"measurement": "Ratio Ki", "setting": "[17]", "result": 210}
    ]},
    {"smiles": "Oc1nc2ccccc2c2nc(-c3ccccc3)nn12", "values": [
      {"measurement": "IC50", "setting": "[11]", "result": 15, "unit": "nM"},
      {"measurement": "IC50", "setting": "[8]", "result": 9800, "unit": "nM"}
    ]},
    {"smiles": "CCCN(CCC)C(=O)Cc1c(-c2ccc(O)cc2)nc2ccc(Cl)cn12", "values": [
      {"measurement": "Ki", "setting": "[16]", "result": 22.2, "unit": "nM"},
      {"measurement": "EC50", "setting": "[7]", "result": 6990, "unit": "nM"},
      {"measurement": "Ki", "setting": "[15]", "result": 1.05, "unit": "nM"},
      {"measurement": "Ratio Ki", "setting": "[17]", "result": 21.1}
    ]},
    {"smiles": "CCCN(CCC)C(=O)Cn1c(=O)n2cc(-c3ccccc3)nc2c2ccccc21", "values": [
      {"measurement": "IC50", "setting": "[11]", "result": 12, "unit": "nM"},
      {"measurement": "IC50", "setting": "[8]", "result": 11, "unit": "nM"},
      {"measurement": "IC50", "setting": "[12]", "result": "> 10000", "unit": "nM"}
    ]},
    {"smiles": "CCN(CC)C(=O)Cn1c(=O)n2cc(-c3ccccc3)nc2c2ccccc21", "values": [
      {"measurement": "IC50", "setting": "[11]", "result": 80, "unit": "nM"},
      {"measurement": "IC50", "setting": "[8]", "result": 400, "unit": "nM"},
      {"measurement": "IC50", "setting": "[12]", "result": "> 10000", "unit": "nM"}
    ]},
    {"smiles": "CCCN(CCC)C(=O)Cc1c(-c2ccc(Cl)cc2)nc2ccc(Cl)cn12", "note": "[ALPIDEM]", "values": [
      {"measurement": "Ki", "setting": "[16]", "result": 7.9, "unit": "nM"},
      {"measurement": "Ki", "setting": "[15]", "result": 1, "unit": "nM"},
      {"measurement": "Ratio Ki", "setting": "[17]", "result": 3.29}
    ]},
    {"smiles": "CC(=O)N(Cc1ccccc1O[11CH3])c1cnccc1Oc1ccccc1", "values": [
      {"measurement": "IC50", "setting": "[18]", "result": 8.07, "unit": "nM"},
      {"measurement": "logD at 0.05 h", "setting": "[10]", "result": 2.82}
    ]},
    {"smiles": "CCCN(CCC)C(=O)Cc1c(-c2ccc(OC)cc2)nc2c(Cl)cc(Cl)cn12", "values": [
      {"measurement": "EC50", "setting": "[7]", "result": 571, "unit": "nM"}
    ]},
    {"smiles": "CCCN(CCC)C(=O)Cc1c(-c2ccc(OCC(=O)O)cc2)nc2c(Cl)cc(Cl)cn12", "values": [
      {"measurement": "EC50", "setting": "[7]", "result": 39000, "unit": "nM"}
    ]},
    {"smiles": "CCCN(CCC)C(=O)Cc1c(-c2ccc(Cl)cc2)nc2c(Cl)cc(Cl)cn12", "note": "[ALPDEM]", "values": [
      {"measurement": "EC50", "setting": "[7]", "result": 337, "unit": "nM"}
    ]}
  ]
}
